The record followed here is ChEMBL document CHEMBL1201862, “PubChem BioAssay data set” (2004).

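How tested: cells in 96-well plates exposed to compound for 48 hours at five concentrations. Here, GI50 denotes the concentration required for 50% inhibition of growth.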 The source made the active and inactive calls. Cut-off read from the data, not from the text of the source: active = GI50 up to about 1.1 µM and inactive = higher.

Among the test systems are EKVX; OVCAR-3; LOX IMVI; M14; HT-29; A498; Malme-3M; 786-0; MDA-MB-435; SR; NCI-H23; CCRF-CEM; A549; BT-549; HCT-15; SK-MEL-2; HCT-116; Hs-578T; SK-MEL-5; MOLT-4.
Holding throughout (experiment): growth of human tumour cells (NCI), 48 h

In the case of `CC(=O)Nc1nc(Cl)cc(NCC2(CO)CCC2)n1`, the GI50 with EKVX, in the assay on OVCAR-3, with LOX IMVI, in the assay on M14, in the assay on HT-29 and with A498 was > 100 µM (inactive) throughout. The GI50 in the assay with Malme-3M, with 786-0, with MDA-MB-435, in the assay with SR, in the assay with NCI-H23 and in the assay on CCRF-CEM was > 100 µM (inactive) throughout. The GI50 is > 100 µM (inactive) with A549; > 100 µM (inactive) with BT-549; greater than 100 µM in the assay on HCT-15; > 100 µM (inactive) in the assay on SK-MEL-2; > 100 µM (inactive) with HCT-116; > 100 µM (inactive) with Hs-578T. Moreover, the GI50 in the assay on SK-MEL-5 and in the assay with MOLT-4 was > 100 µM (inactive) each time.

As to `O=C1Nc2ccccc2C1=Nc1ccc(S(=O)(=O)Nc2nccs2)cc1`, the GI50 with EKVX, in the assay with OVCAR-3, with LOX IMVI, in the assay with M14, with HT-29 and in the assay on A498 was > 100 µM (inactive) in each case. The GI50 is > 100 µM (inactive) in the assay on Malme-3M; > 100 µM (inactive) in the assay on 786-0; 92.5 µM (inactive) with MDA-MB-435; 51.8 µM (inactive) with SR; > 100 µM (inactive) with NCI-H23; > 100 µM (inactive) with CCRF-CEM. The GI50 with A549 was > 100 µM (inactive); in the assay on BT-549, > 100 µM (inactive); with HCT-15, greater than 100 µM; in the assay on SK-MEL-2, > 100 µM (inactive); in the assay on HCT-116, > 100 µM (inactive); with Hs-578T, > 100 µM (inactive). In addition, the GI50 with SK-MEL-5 and in the assay with MOLT-4 was > 100 µM (inactive) each time.

`C/C(=N\NC(N)=O)C(CN1CCOCC1)C(c1ccccc1)c1c(O)c2ccccc2oc1=O` (stereo not given): the GI50 in the assay with EKVX was > 100 µM (inactive); in the assay on OVCAR-3, > 100 µM (inactive); in the assay on LOX IMVI it was > 100 µM (inactive); with M14, > 100 µM (inactive); with HT-29, > 100 µM (inactive); with A498, 8.63 µM (inactive). Moreover, the GI50 with Malme-3M, with 786-0, in the assay with MDA-MB-435, in the assay on SR, with NCI-H23 and with CCRF-CEM was > 100 µM (inactive) each time. The GI50 in the assay with A549 is > 100 µM (inactive); with BT-549, > 100 µM (inactive); in the assay with HCT-15 it was greater than 100 µM; with SK-MEL-2 it was > 100 µM (inactive); in the assay with HCT-116 it was > 100 µM (inactive); in the assay on Hs-578T it was > 100 µM (inactive). Moreover, the GI50 with SK-MEL-5 and in the assay with MOLT-4 was > 100 µM (inactive) each time.

On to `CC1=C(O)C(=O)c2ccccc2C1=O`, for which the GI50 in the assay on EKVX was > 100 µM (inactive); with OVCAR-3, 43.4 µM (inactive); in the assay on LOX IMVI it was 70.6 µM (inactive); with M14, 16.9 µM (inactive); in the assay on HT-29, 56.1 µM (inactive); in the assay on A498 it was > 100 µM (inactive). Besides, the GI50 in the assay on Malme-3M was 9.02 µM (inactive); in the assay on 786-0, 71.9 µM (inactive); with MDA-MB-435, 52.6 µM (inactive); in the assay with SR, 88.5 µM (inactive); in the assay with NCI-H23 it was 12.3 µM (inactive); in the assay on CCRF-CEM, > 100 µM (inactive). Besides, the GI50 is > 100 µM (inactive) in the assay on A549; 18.6 µM (inactive) in the assay on BT-549; 27 µM with HCT-15; > 100 µM (inactive) in the assay on SK-MEL-2; > 100 µM (inactive) in the assay with HCT-116; 78.2 µM (inactive) with Hs-578T. Further, the GI50 is 4.45 µM (inactive) in the assay with SK-MEL-5 and > 100 µM (inactive) in the assay on MOLT-4.
